Laboratory results from ChEMBL document CHEMBL1135618, “Design and pharmacology of N-[(3R)-1,2,3,4-tetrahydroisoquinolinium- 3-ylcarbonyl]-(1R)-1-(4-chlorobenzyl)- 2-[4-cyclohexyl-4-(1H-1,2,4-triazol- 1-ylmethyl)piperidin-1-yl]-2-oxoethylamine (1), a potent, selective, melanocortin subtype-4 receptor agonist” (J Med Chem, 2002).
Blank lines part the entries; values can stand above or below the compound they belong to.

Key:
Melanocortin receptor 4 [1] = biological target: T1, Melanocortin receptor 4 (Homo sapiens, UniProt P32245)
Description: Evaluated for binding affinity against Melanocortin-4 receptor by displacing [125I]-NDP-alpha-MSH radioligand expressed in CHO cells

Melanocortin receptor 3 [2] = biological target: T2, Melanocortin receptor 3 (Homo sapiens, UniProt P41968); test: Maximum percentage of cAMP accumulation at 10 uM relative to alpha-MSH at MC3R; type: functional
Melanocortin receptor 5 [3] = biological target: T3, Melanocortin receptor 5 (Homo sapiens, UniProt P33032); test: Maximum percentage of cAMP accumulation at 10 uM relative to alpha-MSH at MC5R; type: functional
Melanocortin receptor 4 [4] = biological target: T1, Melanocortin receptor 4; test: Maximum percent cAMP accumulation at 10 uM relative to alpha-MSH at Melanocortin-4 receptor; type: functional
Melanocortin receptor 4 [5] = biological target: T1, Melanocortin receptor 4; test: Evaluated for Functional Activity at Melanocortin-4 receptor as effective concentration at 50% maximum CMP accumulation
[6] = biological target: Melanocortin receptor (M3 and M4) (Homo sapiens) (UniProt P32245+P41968); test: Evaluated for selectivity for MC3R versus MC4R displacing [125I]NDP-alpha-MSH radioligand expressed in CHO cells; type: cell-based
[7] = test system: Melanocortin receptor 5 + Melanocortin receptor 4 (Homo sapiens); test: Evaluated for selectivity for MC5R versus MC4R displacing [125I]NDP-alpha-MSH radioligand expressed in CHO cells
Melanocortin receptor 3 [8] = biological target: T2, Melanocortin receptor 3; test: Evaluated for Functional Activity at MC3R as % of cAMP accumulation at 10 uM relative to alpha-MSH
Melanocortin receptor 5 [9] = biological target: T3, Melanocortin receptor 5; test: Evaluated for Functional Activity at MC5R as effective concentration at 50% maximum CMP accumulation
Melanocortin receptor 3 [10] = biological target: T2, Melanocortin receptor 3; test: Evaluated for Functional Activity at MC3R as effective concentration at 50% maximum CMP accumulation
[11] = Percent bioavailability in rat evaluated at a dose 1 mg/kg (intravenous) and 10 mg/kg administered orally and was evaluated for; type: ADME, organism-based; conditions: in vivo, po
[12] = Evaluated for Plasma clearance in dog at dose 0.2 mg/kg (intravenous) and 0.5 mg/kg administered orally; type: ADME, organism-based, Canis lupus familiaris
[13] = Evaluated for plasma clearance in rat at a dose 1 mg/kg (intravenous) and 10 mg/kg administered orally; type: ADME, organism-based
[14] = Evaluated for half life in dog at dose 0.2 mg/kg (intravenous) and 0.5 mg/kg administered orally; type: ADME, organism-based, Canis lupus familiaris; conditions: in vivo
[15] = Volume of distribution evaluated at a dose 1 mg/kg (intravenous) and 10 mg/kg administered orally in rat; type: functional, organism-based
[16] = Evaluated for % bioavailability in dogat a dose 0.2 mg/kg (intravenous) and 0.5 mg/kg administered orally; type: ADME, organism-based, Canis lupus familiaris; conditions: dog, in vivo, po
[17] = Evaluated for maximum time Tmax in dog at dose 0.2 mg/kg (intravenous) and 0.5 mg/kg administered orally; type: functional, organism-based
[18] = Evaluated for maximum time Tmax in rat at a dose 1 mg/kg (intravenous) and 10 mg/kg administered orally; type: functional, organism-based
Melanocortin receptor 5 [19] = biological target: T3, Melanocortin receptor 5; test: Functional activity as concentration at 50% maximum cAMP accumulation in human […] (MC5R) receptor
Melanocortin receptor 4 [20] = biological target: T4, Melanocortin receptor 4 (Rattus norvegicus, UniProt P70596); test: Functional activity as concentration at 50% maximum cAMP accumulation in rat Melanocortin-4 receptor (rMC4R)
Melanocortin receptor 4 [21] = biological target: T4, Melanocortin receptor 4; test: Evaluated for binding affinity against rat Melanocortin-4 receptor (rMC4R) by displacing [125I]NDP-alpha-MSH radioligand expressed in CHO cells; type: cell-based
Melanocortin receptor 5 [22] = biological target: T5, Melanocortin receptor 5 (Rattus norvegicus, UniProt P35345); test: Functional activity as concentration at 50% maximum cAMP accumulation in rat Melanocortin-5 receptor (rMC5R)
Melanocortin receptor 5 [23] = biological target: T5, Melanocortin receptor 5; test: Evaluated for binding affinity against rat Melanocortin-5 receptor (rMC5R) by displacing [125I]NDP-alpha-MSH radioligand expressed in CHO cells; type: cell-based
[24] = biological target: Melanocortin receptor 3 (Rattus norvegicus) (UniProt P32244); test: Percentage of cAMP accumulation at 10 uM relative to alpha-MSH at rat Melanocortin-3 receptor; type: functional
Melanocortin receptor 3 [25] = biological target: T6, Melanocortin receptor 3 (Rattus norvegicus, UniProt P32244); test: Functional activity as concentration at 50% maximum cAMP accumulation in rat Melanocortin-3 receptor (rMC3R)
Melanocortin receptor 5 [26] = biological target: T3, Melanocortin receptor 5; test: Evaluated for binding affinity against human melanocortin 5 (hMC5R) receptor by displacing [125I]NDP-alpha-MSH radioligand expressed in CHO cells; type: cell-based
Melanocortin receptor 3 [27] = biological target: T6, Melanocortin receptor 3; test: Evaluated for binding affinity against rat Melanocortin-3 receptor (rMC3R) by displacing [125I]-NDP-alpha-MSH radioligand expressed in CHO cells; type: cell-based
[28] = Half life in rat evaluated at a dose 1 mg/kg (intravenous) and 10 mg/kg administered orally and was evaluated for; type: ADME, organism-based; conditions: in vivo
[29] = biological target: Melanocortin receptor 5 (Rattus norvegicus) (UniProt P35345); test: Percentage of cAMP accumulation at 10 uM relative to alpha-MSH at rat Melanocortin-5 receptor; type: functional
[30] = biological target: Melanocortin receptor 4 (Rattus norvegicus) (UniProt P70596); conditions: 10 uM
Description: Percentage of cAMP accumulation at 10 uM relative to alpha-MSH at rat Melanocortin-4 receptor

Melanocortin receptor 5 [31] = biological target: T3, Melanocortin receptor 5; conditions: 10 uM
Description: Percentage of cAMP accumulation at 10 uM relative to alpha-MSH at human Melanocortin 5 receptor

Melanocortin receptor 3 [32] = biological target: T2, Melanocortin receptor 3; conditions: 10 uM
Description: Percentage of cAMP accumulation at 10 uM relative to alpha-MSH at human Melanocortin-3 receptor

[33] = biological target: Melanocyte-stimulating hormone receptor (Homo sapiens) (UniProt Q01726); conditions: 10 uM
Description: Percentage of cAMP accumulation at 10 uM relative to alpha-MSH at hMC1R

[34] = Volume of distribution evaluated at a dose 0.2 mg/kg (intravenous) and 0.5 mg/kg administered orally in dog

T1 sequence (P32245 whole entry): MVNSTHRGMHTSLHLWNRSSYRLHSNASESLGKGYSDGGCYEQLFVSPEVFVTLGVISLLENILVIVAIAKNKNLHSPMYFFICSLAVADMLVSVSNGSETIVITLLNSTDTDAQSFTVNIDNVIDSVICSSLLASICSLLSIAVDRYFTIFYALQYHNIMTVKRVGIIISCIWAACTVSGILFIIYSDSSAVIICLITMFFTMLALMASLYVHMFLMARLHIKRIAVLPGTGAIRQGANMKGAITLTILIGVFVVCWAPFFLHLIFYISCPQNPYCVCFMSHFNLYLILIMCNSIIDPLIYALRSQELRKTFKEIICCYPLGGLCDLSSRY
T2 sequence (P41968 whole entry): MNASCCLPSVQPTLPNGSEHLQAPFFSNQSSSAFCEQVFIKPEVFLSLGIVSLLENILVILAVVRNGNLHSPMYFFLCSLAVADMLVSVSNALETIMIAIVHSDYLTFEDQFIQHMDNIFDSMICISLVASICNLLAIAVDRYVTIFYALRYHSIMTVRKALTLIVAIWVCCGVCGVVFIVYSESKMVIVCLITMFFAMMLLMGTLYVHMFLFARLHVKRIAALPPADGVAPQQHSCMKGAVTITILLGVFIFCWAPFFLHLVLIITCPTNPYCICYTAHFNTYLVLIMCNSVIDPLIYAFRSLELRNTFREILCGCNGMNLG
T3 sequence (P33032 whole entry): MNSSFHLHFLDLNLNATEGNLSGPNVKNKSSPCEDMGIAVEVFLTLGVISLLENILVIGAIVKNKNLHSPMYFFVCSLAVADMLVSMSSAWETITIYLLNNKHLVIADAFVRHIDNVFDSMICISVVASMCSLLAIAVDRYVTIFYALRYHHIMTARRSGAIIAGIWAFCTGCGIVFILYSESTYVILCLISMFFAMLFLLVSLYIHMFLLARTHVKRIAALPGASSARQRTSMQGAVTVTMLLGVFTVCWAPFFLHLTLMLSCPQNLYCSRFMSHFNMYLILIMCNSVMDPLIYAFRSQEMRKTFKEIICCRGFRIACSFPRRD
T4 sequence (P70596 whole entry): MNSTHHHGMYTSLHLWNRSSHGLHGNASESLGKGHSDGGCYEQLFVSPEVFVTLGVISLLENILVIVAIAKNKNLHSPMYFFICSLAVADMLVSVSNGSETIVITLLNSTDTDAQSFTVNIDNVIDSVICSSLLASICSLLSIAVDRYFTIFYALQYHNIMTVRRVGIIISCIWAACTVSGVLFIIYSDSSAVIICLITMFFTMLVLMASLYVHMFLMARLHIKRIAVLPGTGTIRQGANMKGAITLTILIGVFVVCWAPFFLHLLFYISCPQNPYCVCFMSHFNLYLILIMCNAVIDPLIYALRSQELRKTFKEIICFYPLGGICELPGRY
T6 sequence (P32244 whole entry): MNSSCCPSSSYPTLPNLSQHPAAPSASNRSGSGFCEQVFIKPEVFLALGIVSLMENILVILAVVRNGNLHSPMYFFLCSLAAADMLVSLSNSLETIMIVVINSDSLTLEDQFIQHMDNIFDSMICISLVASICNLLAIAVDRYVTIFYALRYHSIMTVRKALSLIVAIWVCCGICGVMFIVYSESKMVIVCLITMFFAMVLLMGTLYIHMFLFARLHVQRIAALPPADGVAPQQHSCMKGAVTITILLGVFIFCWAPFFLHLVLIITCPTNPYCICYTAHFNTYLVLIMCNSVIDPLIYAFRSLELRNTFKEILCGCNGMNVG
T5 sequence (P35345 whole entry): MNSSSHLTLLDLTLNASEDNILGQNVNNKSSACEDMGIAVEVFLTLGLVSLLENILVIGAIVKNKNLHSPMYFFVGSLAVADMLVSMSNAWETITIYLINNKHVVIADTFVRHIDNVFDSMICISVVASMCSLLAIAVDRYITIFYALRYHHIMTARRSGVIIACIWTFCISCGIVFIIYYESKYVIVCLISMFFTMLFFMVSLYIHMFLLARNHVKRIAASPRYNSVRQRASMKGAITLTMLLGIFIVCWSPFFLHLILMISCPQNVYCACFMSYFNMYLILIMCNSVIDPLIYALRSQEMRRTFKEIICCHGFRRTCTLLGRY
Sequence of Melanocortin receptor 4 (Rattus norvegicus) (P70596 whole entry): as the sequence (P70596 whole entry) above
Sequence of Melanocortin receptor 3 (Rattus norvegicus) (P32244 whole entry): as the sequence (P32244 whole entry) above
Sequence of Melanocortin receptor 5 (Rattus norvegicus) (P35345 whole entry): as the sequence (P35345 whole entry) above
Sequence of Melanocyte-stimulating hormone receptor (Homo sapiens) (Q01726 whole entry, looked up): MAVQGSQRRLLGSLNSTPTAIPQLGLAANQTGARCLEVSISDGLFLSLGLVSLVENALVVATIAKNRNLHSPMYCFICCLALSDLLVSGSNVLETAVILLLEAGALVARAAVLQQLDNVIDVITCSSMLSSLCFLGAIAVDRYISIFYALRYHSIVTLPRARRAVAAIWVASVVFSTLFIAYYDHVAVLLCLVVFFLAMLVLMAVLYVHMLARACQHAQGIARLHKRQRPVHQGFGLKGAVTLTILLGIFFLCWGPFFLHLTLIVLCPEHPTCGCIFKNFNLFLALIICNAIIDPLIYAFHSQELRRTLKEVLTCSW

Compound: Cn1nnnc1CC1(C2CCCCC2)CCN(C(=O)[C@@H](Cc2ccc(Cl)cc2)NC(=O)[C@H]2Cc3ccccc3CN2)CC1
- Activity (Melanocortin receptor 3 [2]): 50%
- EC50 (Melanocortin receptor 3 [10]): 59 nM
- Activity (Melanocortin receptor 5 [3]): 51%
- EC50 (Melanocortin receptor 5 [9]): 127 nM
- Activity (Melanocortin receptor 4 [4]): 103%
- EC50 (Melanocortin receptor 4 [5]): 0.6 nM
- Selectivity [6]: 277
- IC50 (Melanocortin receptor 4 [1]): 0.3 nM
- Selectivity [7]: 100

Compound: O=C(N[C@H](Cc1ccc(Cl)cc1)C(=O)N1CCC(Cn2cncn2)(C2CCCCC2)CC1)[C@@H]1Cc2ccccc2CN1
- Activity (Melanocortin receptor 3 [2]): 7%
- Activity (Melanocortin receptor 5 [3]): 19%
- EC50 (Melanocortin receptor 5 [9]): 271 nM
- Activity (Melanocortin receptor 4 [4]): 67%

Compound: O=C(N[C@H](Cc1ccc(Cl)cc1)C(=O)N1CCC(Cn2cncn2)(C2CCCCC2)CC1)[C@H]1Cc2ccccc2CN1
- bioavailability [11]: 14%
- clearance [12]: 27.6 mL/min/kg
- clearance [13]: 84 mL/min/kg
- half-life [14]: 1.2 h
- Vdss [15]: 3.6 L/kg
- bioavailability [16]: 16%
- Tmax [17]: 1.5 h
- Tmax [18]: 1 h
- Activity (Melanocortin receptor 3 [2]): 32%
- Activity (Melanocortin receptor 5 [3]): 61%
- EC50 (Melanocortin receptor 5 [9]): 736 nM
- EC50 (Melanocortin receptor 5 [19]): 737 nM
- EC50 (Melanocortin receptor 4 [20]): 2.9 nM
- IC50 (Melanocortin receptor 4 [21]): 0.6 nM
- EC50 (Melanocortin receptor 5 [22]): > 3000 nM
- IC50 (Melanocortin receptor 5 [23]): 1570 nM
- Activation [24]: 65%
- EC50 (Melanocortin receptor 3 [25]): 1320 nM
- IC50 (Melanocortin receptor 5 [26]): 326 nM
- IC50 (Melanocortin receptor 3 [27]): 1880 nM
- half-life [28]: 0.6 h
- Activation [29]: 58%
- Activation [30]: 99%
- Activation (Melanocortin receptor 5 [31]): 61%
- Activation (Melanocortin receptor 3 [32]): 32%
- Activation [33]: 95%
- Vdss [34]: 2.79 L/kg

Compound: CS(=O)(=O)N1CC2(CCN(C(=O)[C@@H](Cc3ccccc3)NC(=O)[C@@H](N)Cc3c[nH]cn3)CC2)c2ccccc21
- EC50 (Melanocortin receptor 4 [5]): 500 nM

Other lines, results leading:

- IC50 (Melanocortin receptor 4 [1]): 108 nM
Compound: CS(=O)(=O)N1CC2(CCN(C(=O)[C@@H](Cc3ccc4ccccc4c3)NC(=O)[C@@H](N)Cc3cnc[nH]3)CC2)c2ccccc21

- Activity (Melanocortin receptor 3 [2]): 4%
- Activity (Melanocortin receptor 5 [3]): 5%
- Activity (Melanocortin receptor 4 [4]): 34%
Compound: O=C(N[C@@H](Cc1ccc(Cl)cc1)C(=O)N1CCC(Cn2cncn2)(C2CCCCC2)CC1)[C@@H]1Cc2ccccc2CN1

- Activity (Melanocortin receptor 3 [2]): 10%
- Activity (Melanocortin receptor 5 [3]): 15%
- Activity (Melanocortin receptor 4 [4]): 79%
- EC50 (Melanocortin receptor 4 [5]): 771 nM
- Selectivity [6]: 53
- IC50 (Melanocortin receptor 4 [1]): 238 nM
- Selectivity [7]: 19
Compound: O=C(N[C@H](Cc1ccc(Cl)cc1)C(=O)N1CCC(Cc2nnn[nH]2)(C2CCCCC2)CC1)[C@H]1Cc2ccccc2CN1

- Activity (Melanocortin receptor 3 [8]): 24%
- EC50 (Melanocortin receptor 5 [9]): 1000 nM
- Activity (Melanocortin receptor 4 [4]): 87%
- EC50 (Melanocortin receptor 4 [5]): 9.6 nM
- IC50 (Melanocortin receptor 4 [1]): 1.2 nM
Compound: Cn1nnc(CC2(C3CCCCC3)CCN(C(=O)[C@@H](Cc3ccc(Cl)cc3)NC(=O)[C@H]3Cc4ccccc4CN3)CC2)n1

- Activity (Melanocortin receptor 3 [2]): 1%
- Activity (Melanocortin receptor 5 [3]): 2%
- Activity (Melanocortin receptor 4 [4]): 9%
Compound: O=C(N[C@@H](Cc1ccc(Cl)cc1)C(=O)N1CCC(Cn2cncn2)(C2CCCCC2)CC1)[C@H]1Cc2ccccc2CN1
